Measured values taken from ChEMBL document CHEMBL1201861, “Genomics of Drug Sensitity in Cancer screening data, Wellcome Trust Sanger Institute”.
pIC50: −log10 of the molar value.

Experiments:
Type in all cases: functional, cell-based
D-392MG = assay: cells; conditions: Homo sapiens
DK-MG = assay: cells; conditions: Homo sapiens
Description: SANGER: Inhibition of human DK-MG cell growth in a cell viability assay.

EFO-27 = assay: cells; conditions: Homo sapiens
Description: SANGER: Inhibition of human EFO-27 cell growth in a cell viability assay.

G-401 = assay: cells; conditions: Homo sapiens
Description: SANGER: Inhibition of human G-401 cell growth in a cell viability assay.

HCC1954 = assay: cells; conditions: Homo sapiens
Description: SANGER: Inhibition of human HCC1954 cell growth in a cell viability assay.

HCC2157 = assay: cells; conditions: Homo sapiens
Description: SANGER: Inhibition of human HCC2157 cell growth in a cell viability assay.

HCC70 = assay: cells; conditions: Homo sapiens
Description: SANGER: Inhibition of human HCC70 cell growth in a cell viability assay.

HMV-2 cell line = assay: cells; conditions: Homo sapiens
Description: SANGER: Inhibition of human HMV-II cell growth in a cell viability assay.

HSC-4 = assay: cells; conditions: Homo sapiens
Description: SANGER: Inhibition of human HSC-4 cell growth in a cell viability assay.

HuP-T3 = assay: cells; conditions: Homo sapiens
Description: SANGER: Inhibition of human HuP-T3 cell growth in a cell viability assay.

IMR-5 = assay: cells; conditions: Homo sapiens
Description: SANGER: Inhibition of human IMR-5 cell growth in a cell viability assay.

KARPAS-422 = assay: cells; conditions: Homo sapiens
Description: SANGER: Inhibition of human KARPAS-422 cell growth in a cell viability assay.

KOSC-2 = assay: cells; conditions: Homo sapiens
Description: SANGER: Inhibition of human KOSC-2 cell growth in a cell viability assay.

KP-4 = assay: cells; conditions: Homo sapiens
Description: SANGER: Inhibition of human KP-4 cell growth in a cell viability assay.

LC4-1 = assay: cells; conditions: Homo sapiens
Description: SANGER: Inhibition of human LC4-1 cell growth in a cell viability assay.

MC-CAR = assay: cells; conditions: Homo sapiens
Description: SANGER: Inhibition of human MC-CAR cell growth in a cell viability assay.

MDA-MB-134-VI = assay: cells; conditions: Homo sapiens
Description: SANGER: Inhibition of human MDA-MB-134-VI cell growth in a cell viability assay.

MDA-MB-361 = assay: cells; conditions: Homo sapiens
MHH-CALL-2 = assay: cells; conditions: Homo sapiens
Description: SANGER: Inhibition of human MHH-CALL-2 cell growth in a cell viability assay.

MIA PaCa-2 = assay: cells; conditions: Homo sapiens
Description: SANGER: Inhibition of human MIA-PaCa-2 cell growth in a cell viability assay.

NCI-H1436 = assay: cells; conditions: Homo sapiens
Description: SANGER: Inhibition of human NCI-H1436 cell growth in a cell viability assay.

NCI-H1882 = assay: cells; conditions: Homo sapiens
Description: SANGER: Inhibition of human NCI-H1882 cell growth in a cell viability assay.

NCI-H2087 = assay: cells; conditions: Homo sapiens
Description: SANGER: Inhibition of human NCI-H2087 cell growth in a cell viability assay.

NCI-H2405 = assay: cells; conditions: Homo sapiens
Description: SANGER: Inhibition of human NCI-H2405 cell growth in a cell viability assay.

NCI-H28 = assay: cells; conditions: Homo sapiens
Description: SANGER: Inhibition of human NCI-H28 cell growth in a cell viability assay.

NCI-H650 = assay: cells; conditions: Homo sapiens
Description: SANGER: Inhibition of human NCI-H650 cell growth in a cell viability assay.

NCI-H661 = assay: cells; conditions: Homo sapiens
Description: SANGER: Inhibition of human NCI-H661 cell growth in a cell viability assay.

NCI-H810 = assay: cells; conditions: Homo sapiens
Description: SANGER: Inhibition of human NCI-H810 cell growth in a cell viability assay.

NCI-N87 = assay: cells; conditions: Homo sapiens
Description: SANGER: Inhibition of human NCI-N87 cell growth in a cell viability assay.

OAW-28 = assay: cells; conditions: Homo sapiens
Description: SANGER: Inhibition of human OAW-28 cell growth in a cell viability assay.

OAW-42 = assay: cells; conditions: Homo sapiens
Description: SANGER: Inhibition of human OAW-42 cell growth in a cell viability assay.

P12-Ichikawa = assay: cells; conditions: Homo sapiens
PANC-03-27 = assay: cells; conditions: Homo sapiens
Description: SANGER: Inhibition of human PANC-03-27 cell growth in a cell viability assay.

RL = assay: cells; conditions: Homo sapiens
Description: SANGER: Inhibition of human RL cell growth in a cell viability assay.

RMG-I = assay: cells; conditions: Homo sapiens
Description: SANGER: Inhibition of human RMG-I cell growth in a cell viability assay.

RPMI-7951 = assay: cells; conditions: Homo sapiens
Description: SANGER: Inhibition of human RPMI-7951 cell growth in a cell viability assay.

RVH-421 = assay: cells; conditions: Homo sapiens
Description: SANGER: Inhibition of human RVH-421 cell growth in a cell viability assay.

S-117 = assay: cells; conditions: Homo sapiens
Description: SANGER: Inhibition of human S-117 cell growth in a cell viability assay.

SCC-25 = assay: cells; conditions: Homo sapiens
Description: SANGER: Inhibition of human SCC-25 cell growth in a cell viability assay.

SIMA = assay: cells; conditions: Homo sapiens
Description: SANGER: Inhibition of human SIMA cell growth in a cell viability assay.

SK-MES-1 = assay: cells; conditions: Homo sapiens
Description: SANGER: Inhibition of human SK-MES-1 cell growth in a cell viability assay.

SKG-IIIa = assay: cells; conditions: Homo sapiens
Description: SANGER: Inhibition of human SKG-IIIa cell growth in a cell viability assay.

SN12C = assay: cells; conditions: Homo sapiens
Description: SANGER: Inhibition of human SN12C cell growth in a cell viability assay.

SU-DHL-1 = assay: SANGER: Inhibition of human SU-DHL-1 cell growth in a cell viability assay.
SW13 = assay: cells; conditions: Homo sapiens
Description: SANGER: Inhibition of human SW13 cell growth in a cell viability assay.

SW1573 = assay: cells; conditions: Homo sapiens
Description: SANGER: Inhibition of human SW1573 cell growth in a cell viability assay.

T98G = assay: cells; conditions: Homo sapiens
Description: SANGER: Inhibition of human T98G cell growth in a cell viability assay.

A204 = assay: cells; conditions: Homo sapiens
Description: SANGER: Inhibition of human A204 cell growth in a cell viability assay.

A2058 = assay: cells; conditions: Homo sapiens
Description: SANGER: Inhibition of human A2058 cell growth in a cell viability assay.

AGS = assay: cells; conditions: Homo sapiens
Description: SANGER: Inhibition of human AGS cell growth in a cell viability assay.

AU565 = assay: cells; conditions: Homo sapiens
Description: SANGER: Inhibition of human AU565 cell growth in a cell viability assay.

BFTC-909 = assay: cells; conditions: Homo sapiens
Description: SANGER: Inhibition of human BFTC-909 cell growth in a cell viability assay.

CA46 = assay: cells; conditions: Homo sapiens
Description: SANGER: Inhibition of human CA46 cell growth in a cell viability assay.

CAL-51 = assay: cells; conditions: Homo sapiens
Description: SANGER: Inhibition of human CAL-51 cell growth in a cell viability assay.

CAL-62 = assay: cells; conditions: Homo sapiens
Description: SANGER: Inhibition of human CAL-62 cell growth in a cell viability assay.

CAL-85-1 = assay: cells; conditions: Homo sapiens
Description: SANGER: Inhibition of human CAL-85-1 cell growth in a cell viability assay.

TE-15 = assay: cells; conditions: Homo sapiens
Description: SANGER: Inhibition of human TE-15 cell growth in a cell viability assay.

UACC-62 = assay: cells; conditions: Homo sapiens
Description: SANGER: Inhibition of human UACC-62 cell growth in a cell viability assay.

WM-115 = assay: cells; conditions: Homo sapiens
Description: SANGER: Inhibition of human WM-115 cell growth in a cell viability assay.

CAMA-1 = assay: cells; conditions: Homo sapiens
Description: SANGER: Inhibition of human CAMA-1 cell growth in a cell viability assay.

CMK = assay: cells; conditions: Homo sapiens
Description: SANGER: Inhibition of human CMK cell growth in a cell viability assay.

COLO-679 = assay: cells; conditions: Homo sapiens
Description: SANGER: Inhibition of human COLO-679 cell growth in a cell viability assay.

Kasumi 1 = assay: cells; conditions: Homo sapiens
Description: SANGER: Inhibition of human KASUMI-1 cell growth in a cell viability assay.

NB17 = assay: cells; conditions: Homo sapiens
Description: SANGER: Inhibition of human NB17 cell growth in a cell viability assay.

## C/C(O)=C(\C#N)C(=O)Nc1cc(Br)ccc1Br
D-392MG
  pIC50: < 4.80
DK-MG
  pIC50: < 4.80
EFO-27
  pIC50: < 4.80
G-401
  pIC50: < 4.80
HCC1954
  pIC50: < 4.80
HCC2157
  pIC50: < 4.80
HCC70
  pIC50: < 4.80
HMV-2 cell line
  pIC50: < 4.80
HSC-4
  pIC50: < 4.80
HuP-T3
  pIC50: < 4.80
IMR-5
  pIC50: < 4.80
KARPAS-422
  pIC50: < 4.80
KOSC-2
  pIC50: < 4.80
KP-4
  pIC50: < 4.80
LC4-1
  pIC50: < 4.80
MC-CAR
  pIC50: < 4.80
MDA-MB-134-VI
  pIC50: < 4.80
MDA-MB-361
  pIC50: < 4.80
MHH-CALL-2
  pIC50: < 4.80
MIA PaCa-2
  pIC50: < 4.80
NCI-H1436
  pIC50: < 4.80
NCI-H1882
  pIC50: < 4.80
NCI-H2087
  pIC50: < 4.80
NCI-H2405
  pIC50: < 4.80
NCI-H28
  pIC50: < 4.80
NCI-H650
  pIC50: < 4.80
NCI-H661
  pIC50: < 4.80
NCI-H810
  pIC50: < 4.80
NCI-N87
  pIC50: < 4.80
OAW-28
  pIC50: < 4.80
OAW-42
  pIC50: < 4.80
P12-Ichikawa
  pIC50: < 4.80
PANC-03-27
  pIC50: < 4.80
RL
  pIC50: < 4.80
RMG-I
  pIC50: < 4.80
RPMI-7951
  pIC50: < 4.80
RVH-421
  pIC50: < 4.80
S-117
  pIC50: < 4.80
SCC-25
  pIC50: < 4.80
SIMA
  pIC50: < 4.80
SK-MES-1
  pIC50: < 4.80
SKG-IIIa
  pIC50: < 4.80
SN12C
  pIC50: < 4.80
SU-DHL-1
  pIC50: < 4.80
SW13
  pIC50: < 4.80
SW1573
  pIC50: < 4.80
T98G
  pIC50: < 4.80
A204
  pIC50: < 4.80
A2058
  pIC50: < 4.80
AGS
  pIC50: < 4.80
AU565
  pIC50: < 4.80
BFTC-909
  pIC50: < 4.80
CA46
  pIC50: < 4.80
CAL-51
  pIC50: < 4.80
CAL-62
  pIC50: < 4.80
CAL-85-1
  pIC50: < 4.80
TE-15
  pIC50: < 4.80
UACC-62
  pIC50: < 4.80
WM-115
  pIC50: < 4.80
CAMA-1
  pIC50: < 4.80
CMK
  pIC50: < 4.80
COLO-679
  pIC50: < 4.80

## CCNc1cc(N[C@H]2CC[C@@H](O)CC2)nc(Nc2ccc3c(ccn3Cc3ccccc3)c2)n1
HCC2157
  pIC50: < 5.29
IMR-5
  pIC50: < 5.29
KARPAS-422
  pIC50: < 5.29
Kasumi 1
  pIC50: < 5.29
LC4-1
  pIC50: < 5.29
MC-CAR
  pIC50: < 5.29
MDA-MB-134-VI
  pIC50: < 5.29
MHH-CALL-2
  pIC50: < 5.29
NB17
  pIC50: < 5.29
NCI-H1436
  pIC50: < 5.29
NCI-H1882
  pIC50: < 5.29
RL
  pIC50: < 5.29
SIMA
  pIC50: < 5.29
SU-DHL-1
  pIC50: < 5.29
CA46
  pIC50: < 5.29
TE-15
  pIC50: 5.29
CMK
  pIC50: < 5.29

## N#C/C(=C1/Nc2ccccc2S1)c1ccnc(NCCc2cccnc2)n1
D-392MG
  pIC50: < 5.10
DK-MG
  pIC50: < 5.10
EFO-27
  pIC50: < 5.10
G-401
  pIC50: 5.55
HCC1954
  pIC50: < 5.10
HCC2157
  pIC50: < 5.10
HCC70
  pIC50: < 5.10
HMV-2 cell line
  pIC50: 6.10
HSC-4
  pIC50: < 5.10
HuP-T3
  pIC50: < 5.10
IMR-5
  pIC50: < 5.10
KARPAS-422
  pIC50: < 5.10
KOSC-2
  pIC50: < 5.10
KP-4
  pIC50: 5.19
LC4-1
  pIC50: 5.12
MC-CAR
  pIC50: < 5.10
MDA-MB-134-VI
  pIC50: < 5.10
MDA-MB-361
  pIC50: 5.19
MHH-CALL-2
  pIC50: < 5.10
MIA PaCa-2
  pIC50: 6.01
NCI-H1436
  pIC50: < 5.10
NCI-H1882
  pIC50: < 5.10
NCI-H2087
  pIC50: < 5.10
NCI-H2405
  pIC50: 5.22
NCI-H28
  pIC50: 5.48
NCI-H650
  pIC50: < 5.10
NCI-H661
  pIC50: < 5.10
NCI-H810
  pIC50: 5.27
NCI-N87
  pIC50: < 5.10
OAW-28
  pIC50: < 5.10
OAW-42
  pIC50: 5.11
P12-Ichikawa
  pIC50: < 5.10
PANC-03-27
  pIC50: 5.54
RL
  pIC50: < 5.10
RMG-I
  pIC50: < 5.10
RPMI-7951
  pIC50: < 5.10
RVH-421
  pIC50: < 5.10
S-117
  pIC50: 5.16
SCC-25
  pIC50: 5.28
SIMA
  pIC50: < 5.10
SK-MES-1
  pIC50: 5.46
SKG-IIIa
  pIC50: < 5.10
SN12C
  pIC50: < 5.10
SU-DHL-1
  pIC50: < 5.10
SW13
  pIC50: < 5.10
SW1573
  pIC50: < 5.10
T98G
  pIC50: < 5.10
A204
  pIC50: 5.13
A2058
  pIC50: < 5.10
AGS
  pIC50: < 5.10
AU565
  pIC50: 5.59
BFTC-909
  pIC50: < 5.10
CA46
  pIC50: 5.26
CAL-51
  pIC50: 5.28
CAL-62
  pIC50: 5.23
CAL-85-1
  pIC50: 5.82
TE-15
  pIC50: 5.65
UACC-62
  pIC50: < 5.10
WM-115
  pIC50: < 5.10
CAMA-1
  pIC50: < 5.10
CMK
  pIC50: 5.56
COLO-679
  pIC50: < 5.10

## Cc1[nH]c(/C=C2\C(=O)Nc3ccc(S(=O)(=O)Cc4c(Cl)cccc4Cl)cc32)c(C)c1C(=O)N1CCC[C@@H]1CN1CCCC1 [PHA-665752]
HCC2157
  pIC50: < 5.70
IMR-5
  pIC50: < 5.70
KARPAS-422
  pIC50: < 5.70
Kasumi 1
  pIC50: < 5.70
LC4-1
  pIC50: < 5.70
MC-CAR
  pIC50: < 5.70
MDA-MB-134-VI
  pIC50: < 5.70
MHH-CALL-2
  pIC50: < 5.70
NB17
  pIC50: < 5.70
NCI-H1436
  pIC50: < 5.70
NCI-H1882
  pIC50: < 5.70
RL
  pIC50: < 5.70
SIMA
  pIC50: < 5.70
SU-DHL-1
  pIC50: < 5.70
CA46
  pIC50: < 5.70
TE-15
  pIC50: < 5.70
CMK
  pIC50: < 5.70
